Literature values, collected in PubChem BioAssay AID1259409 (Chemical Carcinogenesis Research Information System (CCRIS), 2018).

System: rodent chemically induced tumor inhibition, incidence and multiplicity
Test: CCRIS tumor inhibitor studies
Settings: for tumour outcome (control, treated, inhibition, significance): Route [Inhibitor]: ORAL; for outcome: Carcinogen: 4-NITROQUINOLINE 1-OXIDE [56-57-5], Route [Inhibitor]: ORAL (DIET), Dose [Carcinogen]: 20 PPM FOR 8 WKS STARTING AT 7 WKS OF AGE (STUDY DURATION: 32 WKS)

## CCS(=O)(=O)Nc1ncc(C(F)(F)F)cc1NC(=O)C1CCCCC1
Carcinogen: N-NITROSOBIS(2-OXOPROPYL)AMINE [60599-38-4], Dose [Inhibitor]: 200 PPM FOR 16 WK BEGINNING 1 WK POST CHOLECYSTODUOODENOSTOMY AND LIGATION OF DISTAL END OF COMMON DUCT (STUDY DURATION:, Species: HAMSTER, Strain/Sex: SYRIAN/FEMALE, Target Tissue: Type of Lesion: EXTRAHEPATIC BILE DUCT: ADENOCARCINOMA, Dose [Carcinogen]: 10 MG/KG BW 1X/WK FOR 10 WK BEGINNING 1 WK POST CHOLECYSTODUODENOSTOMY AND LIGATION OF DISTAL END OF COMMON DUCT (STUDY, Promoter: NONE
  tumour outcome (control, treated, inhibition, significance): 14/26 (54%), 2/15 (13%), 76%, p<0.05
Carcinogen: N-NITROSOBIS(2-OXOPROPYL)AMINE [60599-38-4], Dose [Inhibitor]: 200 PPM FOR 16 WK BEGINNING 1 WK POST CHOLECYSTODUOODENOSTOMY AND LIGATION OF DISTAL END OF COMMON DUCT (STUDY DURATION:, Species: HAMSTER, Strain/Sex: SYRIAN/FEMALE, Target Tissue: Type of Lesion: GALL BLADDER: ADENOCARCINOMA, Dose [Carcinogen]: 10 MG/KG BW 1X/WK FOR 10 WK BEGINNING 1 WK POST CHOLECYSTODUOODENOSTOMY AND LIGATION OF DISTAL END OF COMMON DUCT (STUDY, Promoter: NONE
  tumour outcome (control, treated, inhibition, significance): 18/26 (69%), 3/15 (20%), 71%, p<0.01
Carcinogen: N-NITROSOBIS(2-OXOPROPYL)AMINE [60599-38-4], Dose [Inhibitor]: 200 PPM FOR 16 WK BEGINNING 1 WK POST CHOLECYSTODUOODENOSTOMY AND LIGATION OF DISTAL END OF COMMON DUCT (STUDY DURATION:, Species: HAMSTER, Strain/Sex: SYRIAN/FEMALE, Target Tissue: Type of Lesion: INTRAHEPATIC BILE DUCT: ADENOCARCINOMA, Dose [Carcinogen]: 10 MG/KG BW 1X/WK FOR 10 WK BEGINNING 1 WK POST CHOLECYSTODUODENOSTOMY AND LIGATION OF DISTAL END OF COMMON DUCT (STUDY, Promoter: NONE
  tumour outcome (control, treated, inhibition, significance): 14/26 (54%), 3/15 (20%), 63%, p<0.05

## CC(C)=CC[C@@H](O)C1=CC(=O)c2c(O)ccc(O)c2C1=O
Carcinogen: AZOXYMETHANE, 25843-45-2, Dose [Inhibitor]: 0, 0.02% IN DIET IN WK 1-3 OF STUDY FOLLOWED BY BASAL DIET FOR DURATION OF STUDY (STUDY DURATION: 1 YR), Species: RAT, Strain/Sex: F344/MALE, Target Tissue: Type of Lesion: LARGE INTESTINE: ADENOCARCINOMA, Dose [Carcinogen]: 15 MG/KG BW 1/WK IN WK 1 AND 2 OF STUDY, Promoter: NONE USED
  tumour outcome (control, treated, inhibition, significance): 13/27 (48%), 6/20 (30%), 38%, not significant
Carcinogen: AZOXYMETHANE, 25843-45-2, Dose [Inhibitor]: 0, 0.02% IN DIET IN WK 1-3 OF STUDY FOLLOWED BY BASAL DIET FOR DURATION OF STUDY (STUDY DURATION: 1 YR), Species: RAT, Strain/Sex: F344/MALE, Target Tissue: Type of Lesion: LARGE INTESTINE: ADENOMA, Dose [Carcinogen]: 15 MG/KG BW 1/WK IN WK 1 AND 2 OF STUDY, Promoter: NONE USED
  tumour outcome (control, treated, inhibition, significance): 6/27 (22%), 4/20 (20%), 9%, not significant
Carcinogen: AZOXYMETHANE, 25843-45-2, Dose [Inhibitor]: 0, 0.02% IN DIET IN WK 1-3 OF STUDY FOLLOWED BY BASAL DIET FOR DURATION OF STUDY (STUDY DURATION: 1 YR), Species: RAT, Strain/Sex: F344/MALE, Target Tissue: Type of Lesion: SMALL INTESTINE: ADENOCARCINOMA, Dose [Carcinogen]: 15 MG/KG BW 1/WK IN WK 1 AND 2 OF STUDY, Promoter: NONE USED
  tumour outcome (control, treated, inhibition, significance): 6/27 (22%), 1/20 (5%), 77%, not significant

## C=C(C)[C@@H](CC=C(C)C)CC12C[C@@H](CC=C(C)C)C(C)(C)C(CC=C(C)C)(C(=O)/C(=C(\O)c3ccc(O)c(O)c3)C1=O)C2=O (stereo not given in full)
Dose [Inhibitor]: 0, 100, 500 PPM FOR 8 WKS STARTING AT 6 WKS OF AGE TO 1 WK AFTER CARCINOGEN EXPOSURE (STUDY DURATION: 32 WKS), Dose [Inhibitor]: 0, 100, 500 PPM FOR 8 WKS STARTING AT 6 WKS OF AGE TO 1 WK AFTER CARCINOGEN EXPOSURE (STUDY DURATION: 32 WKS), Species: RAT, Strain/Sex: F344/MALE (?,26)/(?,16), Target Tissue: Type of Lesion: TONGUE: SQUAMOUS CELL CARCINOMA
  outcome: (13/26) 50%; (2/16) 12.5%, 75%, p<0.02; (1/16) 6.3%, 87%, p<0.005
Dose [Inhibitor]: 0, 100, 500 PPM FOR 8 WKS STARTING AT 6 WKS OF AGE TO 1 WK AFTER CARCINOGEN EXPOSURE (STUDY DURATION: 32 WKS), Dose [Inhibitor]: 0, 100, 500 PPM FOR 8 WKS STARTING AT 6 WKS OF AGE TO 1 WK AFTER CARCINOGEN EXPOSURE (STUDY DURATION: 32 WKS), Species: RAT, Strain/Sex: F344/MALE (?/26)/(?,16), Target Tissue: Type of Lesion: TONGUE: PAPILLOMA
  outcome: (4/26) 15.4%; (1/16) 6.3%, 59.1%; (1/16) 6.3%, 59.1%
Dose [Inhibitor]: 100, 500 PPM STARTING 1 WK AFTER CARCINOGEN FOR 22 WKS (STUDY DURATION: 32 WKS), Species: RAT, Strain/Sex: F344/MALE (?,26)/(?,15), Target Tissue: Type of Lesion: TONGUE: PAPILLOMA
  outcome: (4/26) 15%; (3/15) 20%, -30%; (2/15) 13%, 14%
Dose [Inhibitor]: 100, 500 PPM STARTING 1 WK AFTER CARCINOGEN FOR 22 WKS (STUDY DURATION: 32 WKS), Species: RAT, Strain/Sex: F344/MALE (?,26)/(?,15), Target Tissue: Type of Lesion: TONGUE: SQUAMOUS CELL CARCINOMA
  outcome: (13/26) 50%; (1/15) 6.7%, 87%, p<0.05; (0/15) 0%, 100%, p<0.001
